Assay type in all cases: biochemical
For assay [1], the target named is T1, cathepsin V (Homo sapiens, UniProt O60911).
T1 construct: made in house
The experiment in a line: Substrate selectivity screening, rate of hydrolysis, cathepsin V. Conditions: Table S4; substrate 100µM, cathepsin 5nM; pH 5.5, 37 °C; average of at least three screenings. As to the method: (§1) All kinetic experiments were performed using fMax (Molecular Devices) and CLARIOStar (BMG LABTECH) spectrofluorimeters operating in kinetic mode using 96-well plates. ACC-labeled substrates were screened using 355 nm and 460 nm wavelengths (excitation and emission, respectively). […] The buffer was prepared at room temperature and the enzyme kinetic studies were performed at 37 °C.
(§2) All potentially selective cathepsin L substrates were tested for their selectivity against a panel of five different cathepsins, containing cathepsins L, V, S, K and […], at concentrations of 2 μM and 100 μM. To obtain reliable results the concentration of each cathepsin was 5 nM. Substrate hydrolysis was carried out for 10 min (for cathepsin L) and for up to 60 min (for other cathepsins). Hydrolysis rates (RFU s^–1) are presented as average values from at least three screenings.

Assay [2] concerns the target T2, cathepsin L (Homo sapiens, UniProt P07711).
T2 construct: made in house
The experiment in a line: Substrate selectivity screening, rate of hydrolysis, cathepsin L. Conditions: Table S4; substrate 100µM, cathepsin 5nM; pH 5.5, 37 °C; average of at least three screenings. As to the method:
as §1, §2

In assay [3] the target is T3, cathepsin S (Homo sapiens, UniProt P25774).
T3 construct: made in house
The experiment in a line: Substrate selectivity screening, rate of hydrolysis, cathepsin S. Conditions: Table S4; substrate 100µM, cathepsin 5nM; pH 5.5, 37 °C; average of at least three screenings. Here is the method:
as §1, §2

For assay [4], the target named is T4, cathepsin K (Homo sapiens, UniProt P43235).
T4 construct: made in house
T4 sequence (P43235 115-329): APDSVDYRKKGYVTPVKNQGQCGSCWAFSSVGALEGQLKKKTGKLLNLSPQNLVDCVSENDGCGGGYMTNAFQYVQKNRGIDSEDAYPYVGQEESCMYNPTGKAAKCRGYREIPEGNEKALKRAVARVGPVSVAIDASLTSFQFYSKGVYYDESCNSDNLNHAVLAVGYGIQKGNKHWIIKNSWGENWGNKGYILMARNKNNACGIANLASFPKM
The experiment in a line: Substrate selectivity screening, rate of hydrolysis, cathepsin K. Conditions: Table S4; substrate 100µM, cathepsin 5nM; pH 5.5, 37 °C; average of at least three screenings. Here is the method: as §1, §2

Assay [5] concerns the target T5, cathepsin B (Homo sapiens, UniProt P07858).
T5 construct: made in house
The experiment in a line: Substrate selectivity screening, rate of hydrolysis, cathepsin B. To be noted: Table S4; substrate 100µM, cathepsin 5nM; pH 5.5, 37 °C; average of at least three screenings. Here is the method: as §1, §2

The target of assay [6] is T2, cathepsin L. The experiment in a line: Kinetic parameters of ACC substrates with cathepsin L. Conditions: pH 5.5, 37 °C, cathepsin L 0.1–0.5 nM, SD below 15%.
Assay [7] concerns the target T5, cathepsin B. The experiment in a line: Kinetic parameters of ACC substrates with cathepsin B. Conditions: Fig. 5B; pH 5.5, 37 °C; cathepsin B 4–15 nM; triplicate, SD below 15%. As to the method:
as §1
(§3) Classic substrate velocity plots were analyzed according to Michaelis–Menten kinetics and a detailed protocol for the determination of kinetic parameters for ACC-tagged substrates is found elsewhere.[56] […] Experiments were repeated at least three times and results are presented as an average. The SDs were below 15%.

Assay [8] addresses T4, cathepsin K. The experiment in a line: Kinetic parameters of ACC substrates with cathepsin K. To be noted: Fig. 5B; pH 5.5, 37 °C; cathepsin K 5–20 nM; triplicate, SD below 15%. Here is the method:
as §1, §3

Assay [9] has as its target T3, cathepsin S. The experiment in a line: Kinetic parameters of ACC substrates with cathepsin S. To be noted: Fig. 5B; pH 5.5, 37 °C; cathepsin S 5–20 nM; triplicate, SD below 15%. As to the method: as §1, §3
Assay [10] has as its target T1, cathepsin V. The experiment in a line: Kinetic parameters of ACC substrates with cathepsin V. Conditions: Fig. 5B; pH 5.5, 37 °C; cathepsin V 10–20 nM; triplicate, SD below 15%. As to the method:
as §1, §3

For assay [11], the target named is T3, cathepsin S. The experiment in a line: kobs/I of activity-based probes, cathepsin S. Conditions: Fig. 6A; pseudo-first order, probe at least 5-fold excess over cathepsin, 100 μM ACC substrate; pH 5.5, 37 °C; triplicate, SD below 20%. As to the method:
as §1
(§4) For the kinetic studies, five recombinant human cathepsins (B, L, V, K and S) were expressed and purified and active site titrated using an E64 inhibitor. The kobs/I parameter was measured under pseudo-first order kinetic conditions, as described.[40] The cathepsin of interest was mixed with various concentrations of probe (at least 5-fold excess over cathepsin) and 100 μM ACC-fluorescence substrate. The experiments were repeated at least three times, and the results are presented as an average. The SDs were below 20%.

Assay [12] deals with T1, cathepsin V. The experiment in a line: kobs/I of activity-based probes, cathepsin V. To be noted: Fig. 6A; pseudo-first order, probe at least 5-fold excess over cathepsin, 100 μM ACC substrate; pH 5.5, 37 °C; triplicate, SD below 20%. Here is the method: as §1, §4
Assay [13] addresses T5, cathepsin B. The experiment in a line: kobs/I of activity-based probes, cathepsin B. To be noted: Fig. 6A; pseudo-first order, probe at least 5-fold excess over cathepsin, 100 μM ACC substrate; pH 5.5, 37 °C; triplicate, SD below 20%. As to the method: as §1, §4
Assay [14] concerns the target T4, cathepsin K. The experiment in a line: kobs/I of activity-based probes, cathepsin K. To be noted: Fig. 6A; pseudo-first order, probe at least 5-fold excess over cathepsin, 100 μM ACC substrate; pH 5.5, 37 °C; triplicate, SD below 20%. As to the method:
as §1, §4

Assay [15] deals with T2, cathepsin L. The experiment in a line: kobs/I of activity-based probes, cathepsin L. Conditions: Fig. 6A; pseudo-first order, probe at least 5-fold excess over cathepsin, 100 μM ACC substrate; pH 5.5, 37 °C; triplicate, SD below 20%. Here is the method:
as §1, §4

Non-standard residues stand in square brackets, D forms with d. *: point of attachment. Phe(F5) = N[C@@H](Cc1c(F)c(F)c(F)c(F)c1F)C(=O)O; Phe(3,4-F2) = N[C@@H](Cc1ccc(F)c(F)c1)C(=O)O; Phe(2-Cl) = N[C@@H](Cc1ccccc1Cl)C(=O)O; Phe(4-F) = N[C@@H](Cc1ccc(F)cc1)C(=O)O; Phe(2-F) = N[C@@H](Cc1ccccc1F)C(=O)O; ACC = NC(=O)Cc1cc(=O)oc2cc(N*)ccc12; Met(O) = CS(=O)CC[C@H](N)C(=O)O; Tic = O=C(O)[C@@H]1Cc2ccccc2CN1; dOrn = NCCC[C@@H](N)C(=O)O; Orn = NCCC[C@H](N)C(=O)O; Dab = NCC[C@H](N)C(=O)O

T2 sequence (P07711 114-333): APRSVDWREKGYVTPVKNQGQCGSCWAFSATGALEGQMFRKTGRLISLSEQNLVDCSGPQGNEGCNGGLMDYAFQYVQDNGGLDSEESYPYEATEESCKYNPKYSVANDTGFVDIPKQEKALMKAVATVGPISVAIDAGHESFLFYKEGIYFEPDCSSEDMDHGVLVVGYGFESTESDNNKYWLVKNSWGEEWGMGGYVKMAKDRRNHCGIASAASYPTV
T3 sequence (P25774 115-331): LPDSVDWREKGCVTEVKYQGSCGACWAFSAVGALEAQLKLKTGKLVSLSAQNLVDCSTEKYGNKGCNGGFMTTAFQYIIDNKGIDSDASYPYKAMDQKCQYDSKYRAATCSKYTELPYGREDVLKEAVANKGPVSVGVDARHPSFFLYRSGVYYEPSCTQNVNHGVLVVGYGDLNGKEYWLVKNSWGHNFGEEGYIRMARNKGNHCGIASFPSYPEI
T1 sequence (O60911 114-334): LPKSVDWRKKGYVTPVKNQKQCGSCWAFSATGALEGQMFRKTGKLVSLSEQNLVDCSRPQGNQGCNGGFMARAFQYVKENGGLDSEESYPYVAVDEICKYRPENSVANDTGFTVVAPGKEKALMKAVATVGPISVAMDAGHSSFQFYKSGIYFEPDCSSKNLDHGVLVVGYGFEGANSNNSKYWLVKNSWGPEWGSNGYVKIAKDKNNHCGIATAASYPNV

Take “Ac-HRFR-{ACC} (SMILES CC(=O)N[C@@H](Cc1c[nH]cn1)C(=O)N[C@@H](CCCNC(=N)N)C(=O)N[C@@H](Cc1ccccc1)C(=O)N[C@@H](CCCNC(=N)N)C(=O)Nc1ccc2c(CC(N)=O)cc(=O)oc2c1) [reference compound]”: the “Relative substrate activity (rate of hydrolysis), cathepsin V” value (“Relative substrate activity … cathepsin V” for short) at cathepsin V [1] was 224 RFU/s. Further, the “Relative substrate activity (rate of hydrolysis), cathepsin L” value (“Relative substrate activity … cathepsin L” for short) at cathepsin L [2] was 875 RFU/s. The “Relative substrate activity (rate of hydrolysis), cathepsin S” value (“Relative substrate activity … cathepsin S” for short) on cathepsin S [3] is 40.3 RFU/s. Also, the “Relative substrate activity (rate of hydrolysis), cathepsin K” value (“Relative substrate activity … cathepsin K” for short) at cathepsin K [4] is listed as 24.5 RFU/s. Moreover, the “Relative substrate activity (rate of hydrolysis), cathepsin B” value (“Relative substrate activity … cathepsin B” for short) on cathepsin B [5] is 272 RFU/s. At cathepsin L [6] (Fig. 4B, ACC substrates, 100 mM sodium acetate, 100 mM NaCl, 10 mM DTT, 1 mM EDTA, average of at least three), the kcat/KM was 13,050,000 M^-1s^-1.
As to “Ac-H[dV][Phe(F5)]R-{ACC} (SMILES CC(=O)N[C@@H](Cc1c[nH]cn1)C(=O)N[C@@H](C(=O)N[C@@H](Cc1c(F)c(F)c(F)c(F)c1F)C(=O)N[C@@H](CCCNC(=N)N)C(=O)Nc1ccc2c(CC(N)=O)cc(=O)oc2c1)C(C)C)”, on cathepsin V [1], the “Relative substrate activity … cathepsin V” value is 4.4 RFU/s. For the same substance, the “kcat/KM Cath-B” value on cathepsin B [7] came out at 252 M⁻¹ s⁻¹. Also, the “Relative substrate activity … cathepsin L” value at cathepsin L [2] is 706 RFU/s. For the same substance, at cathepsin K [8], the “kcat/KM Cath-K” value was less than 10 M⁻¹ s⁻¹. For the same substance, the “kcat/KM Cath-S” value at cathepsin S [9] is less than 10 M⁻¹ s⁻¹. For the same substance, the “Relative substrate activity … cathepsin S” value on cathepsin S [3] stood at 0.0 RFU/s. Moreover, the “Relative substrate activity … cathepsin K” value on cathepsin K [4] came to 1.1 RFU/s. Also, at cathepsin B [5], the “Relative substrate activity … cathepsin B” value is given as 0.7 RFU/s. Moreover, the “kcat/KM Cath-V” value on cathepsin V [10] turned out to be 539 M⁻¹ s⁻¹. Also, on cathepsin L [6] (Fig. 5B, triplicate), the “kcat/KM Cath-L” value was 747,400 M^-1s^-1.
Regarding “Ac-[Met(O)][dR][Phe(2-F)]R-{ACC} (SMILES CC(=O)N[C@@H](CCS(C)=O)C(=O)N[C@H](CCCNC(=N)N)C(=O)N[C@@H](Cc1ccccc1F)C(=O)N[C@@H](CCCNC(=N)N)C(=O)Nc1ccc2c(CC(N)=O)cc(=O)oc2c1)”, on cathepsin V [1], the “Relative substrate activity … cathepsin V” value is on record as 129 RFU/s. The “Relative substrate activity … cathepsin L” value at cathepsin L [2] is on record as 658 RFU/s. The “Relative substrate activity … cathepsin S” value at cathepsin S [3] came out at 21.1 RFU/s. Moreover, the “Relative substrate activity … cathepsin K” value on cathepsin K [4] came out at 0.2 RFU/s. Moreover, the “Relative substrate activity … cathepsin B” value at cathepsin B [5] turned out to be 76.2 RFU/s.
Taken in the same sequence, the figures for “Ac-[Tic][Dab][Phe(3,4-F2)]R-{ACC} (SMILES CC(=O)N1Cc2ccccc2C[C@H]1C(=O)N[C@@H](CCN)C(=O)N[C@@H](Cc1ccc(F)c(F)c1)C(=O)N[C@@H](CCCNC(=N)N)C(=O)Nc1ccc2c(CC(N)=O)cc(=O)oc2c1)” were 28.4 RFU/s, 825 RFU/s, 2.8 RFU/s, 0.2 RFU/s and 41.2 RFU/s.
As to “Ac-[Tic][Orn][Phe(4-F)]L-{ACC} (SMILES CC(=O)N1Cc2ccccc2C[C@H]1C(=O)N[C@@H](CCCN)C(=O)N[C@@H](Cc1ccc(F)cc1)C(=O)N[C@@H](CC(C)C)C(=O)Nc1ccc2c(CC(N)=O)cc(=O)oc2c1)”, the “Relative substrate activity … cathepsin V” value on cathepsin V [1] is recorded as 31.7 RFU/s. For the same substance, the “Relative substrate activity … cathepsin L” value at cathepsin L [2] worked out at 684 RFU/s. Moreover, the “Relative substrate activity … cathepsin S” value on cathepsin S [3] is on record as 4.7 RFU/s. Besides, the “Relative substrate activity … cathepsin K” value at cathepsin K [4] came to 0.0 RFU/s. For the same substance, on cathepsin B [5], the “Relative substrate activity … cathepsin B” value stood at 15.0 RFU/s.
The like results for “Ac-[Tic][dOrn][Phe(2-Cl)]K-{ACC} (SMILES CC(=O)N1Cc2ccccc2C[C@H]1C(=O)N[C@H](CCCN)C(=O)N[C@@H](Cc1ccccc1Cl)C(=O)N[C@@H](CCCCN)C(=O)Nc1ccc2c(CC(N)=O)cc(=O)oc2c1) [Tic-DArg-Phe(2-Cl)-Lys]” were, in that order, 36.1 RFU/s, 134 RFU/s, 10.3 RFU/s, 0.0 RFU/s and 3.1 RFU/s.
With “BODIPYFL-6-ahx-Ala-Arg-Leu-Arg-AOMK [MP-pc2, BDPFL-6-ahx-Ala-Arg-Leu-Arg-AOMK, BODIPY-FL-labeled pan-cathepsin probe]”, the “kobs/I Cath-S” value on cathepsin S [11] was 18,500 M^-1s^-1. Further, the “kobs/I Cath-V” value at cathepsin V [12] was 9,800 M^-1s^-1. In addition, the “kobs/I Cath-B” value at cathepsin B [13] is 23,200 M^-1s^-1. Besides, the “kobs/I Cath-K” value at cathepsin K [14] came to 350 M⁻¹ s⁻¹. Also, the “kobs/I Cath-L” value on cathepsin L [15] is recorded as 8,200 M^-1s^-1.
Taken in the same sequence, the figures for “Cy3-6-ahx-Ala-Arg-Leu-Arg-AOMK [MP-pc3, Cy3-labeled pan-cathepsin probe]” were 69,000 M^-1s^-1, 6,700 M^-1s^-1, 75,400 M^-1s^-1, 1,350 M^-1s^-1 and 16,900 M^-1s^-1.
The like results for “biotin-6-ahx-His-DThr-Phe(F5)-Arg-AOMK [MP-cL1]” were, in that order, less than 100 M⁻¹ s⁻¹, 780 M⁻¹ s⁻¹, 1,900 M^-1s^-1, less than 100 M⁻¹ s⁻¹ and 26,600 M^-1s^-1.
Taken in the same sequence, the figures for “biotin-6-ahx-His-DThr-Phe(F5)-Lys-AOMK [MP-cL2]” were less than 100 M⁻¹ s⁻¹, 360 M⁻¹ s⁻¹, 1,250 M^-1s^-1, less than 100 M⁻¹ s⁻¹ and 10,500 M^-1s^-1.

(Values after paper PMC5896380, “Selective imaging of cathepsin L in breast cancer by fluorescent activity-based probes” (Chemical Science, 2018).)
